The source of these data is publication PMC9232612, “A phase 1b randomised controlled trial of a glucagon-like peptide-1 and glucagon receptor dual agonist IBI362 (LY3305677) in Chinese patients with type 2 diabetes” (Nature Communications, 2022).

A short description of data set [1]: Non-compartmental pharmacokinetics of IBI362 in plasma. The class given is in vivo. Conditions: human, sc; for AUC(0-t): n=8, read-out: AUC0-168h, geometric mean (CV%); for Cmax: n=8, read-out: Cmax, geometric mean (CV%). An excerpt:
Standard non-compartmental pharmacokinetics methods were used to analyze IBI362 plasma concentration data using Pkanalix 2020R1 (Lixoft, Antony, France). Secondary efficacy outcomes included change from baseline to week 12 in HbA1c, fasting plasma glucose (FPG), fasting insulin levels, change from baseline to week 12 in post-mixed-meal tolerance test (post-MTT) glucose, insulin, C peptide, GLP-1 and OXM levels, as well as seven-point self-measured blood glucose (SMBG) profile.
Safety analyses were done in the safety population (defined as all patients who received at least one dose of the study treatment). Pharmacokinetic analyses were done in the pharmacokinetic population (defined as all patients who received at least one dose of IBI362 and had at least one valid plasma concentration assessment). Efficacy analyses were done in the efficacy population (defined as all patients who received at least one dose of the study treatment and had baseline and at least one post-baseline HbA1c assessment). Immunogenicity analyses were done in the immunogenicity population (defined as all patients who received at least one dose of the study treatment and had at least one post-baseline ADA result). […]
Table 3. PK/PD Sampling Schedule
sampling time hour hour hour hour 1 hour hour hour for
collection - - min min ± 30 mi 1h 2h 3h 4h 5h - ± 2h - min min - ± 2h - min min - - 2h 12h
Drug √ √ √ √ √ √ √ √ √ √ √ √ √ √ √
PK Sampling ● ● ● ● ● ● ● ● ● ● ● ● ● ● ● ● ● ● ● ● ● ● ●
1. PK sampling time points: Week 1 (intensive PK) PK sampling points: within 1 h before administration, 4 h ± 10 min, 8 h ± 20 min, 12 h ± 30 min, 24 h ± 1 h (Day 2), 48 h ± 2 h (Day 3), 72 h ± 3 h (Day 4), 96 h
± 4 h (Day 5), 120 h ± 5 h (Day 6) and within 1 h before administration on Day 8. Week 4: D22 for 48h ± 2h. Sparse sampling in Week 5: within 1 h before administration on Day 29, 4 h ± 10 min, 8 h ± 20 min after
administration and within 1 h before administration on Day 36. Week 8: D50 48h ± 2h. Sparse sampling in Week 9: within 1 h before administration on Day 57, 4 h ± 10 min, 8 h ± 20 min after administration and within
1 h before administration on Day 64. Sparse sampling at Week 12: Within 1h before administration, 48h ± 2h after administration (D80) and 168h ± 12h after administration (D85) on D78. If a patient fails to complete
the study and withdraws from the study prematurely, PK samples will be collected at early termination visit. Three (3) mL samples will be collected at each blood collection site and detailed procedures will be provided
in the central laboratory manual.
2. PD sampling (insulin/C-peptide/plasma glucose/glucagon/OXM/GLP-1) points: Week 1: within 48 hours ± 2 hours after dosing (Day 3), within 1 hour before dosing on Day 8; Week 5: within 1 hour before dosing
on Day 29; Week 9: within 1 hour before dosing on Day 57; Week 12: within 1 hour before dosing on D78 and 168 hours ± 12 hours after dosing (D85). PD samples will be collected at the early termination visit, if a
patient withdraw early due to failure to complete the study. All PD sampling will be performed in the fasted state. A total of 9 mL will be collected from each blood collection site, and the detailed operation process will
be described in the central laboratory manual.

For data set [2] the following is noted: single dose range of 0.03-5 mg; earlier study, ref not given; cited from earlier work. An excerpt:
page 21: safety follow-up visit. The safety data of this patient was collected and included in the analysis. We made this clear in the Results (Lines 210-213). 6. For the tables that present treatment emergent adverse events (Table 2 and Supplementary Table 2), do the numbers in the table correspond to the number of events, or the number of patients who experienced at least one event? Response: Safety data in this study were presented as number of patients (percentage). We made this clear in the footnotes (Fig. 2 and S3) of relevant tables and apologized for the neglect. 7. For Supplementary T ...

In data set [3] the test system is human GLP-1 receptors. Conditions: in vitro; cited from earlier work. An excerpt: (§1) IBI362 (also known as LY3305677) is a once-weekly synthetic peptide analogue of mammalian OXM, with a fatty-acyl moiety to extend the half-life[13].
In data set [4] the test system is human glucagon receptors. The settings on record: in vitro; cited from earlier work.
Excerpt: as §1

For data set [5], the system named is mice. Conditions: cited from earlier work.
Excerpt: as §1

Data set [6] concerns mouse GLP-1 receptors. Conditions: in vitro; cited from earlier work.
Excerpt: as §1

Data set [7] concerns mouse glucagon receptors. Conditions: in vitro; cited from earlier work.
Excerpt: as §1

Data set [8] concerns diet-induced obese mice. Conditions: preclinical data quoted in the protocol, ref not given; cited from earlier work. An excerpt: page 42: IBI362 Innovent Biologics (Suzhou) Co., Ltd. CIBI362A101 3%, abdominal obesity [waist circumference ≥ 90 cm (male) or ≥ 85 cm (female)] patients up to 45. 4% [15]. Although the occurrence of obesity is low compared with Caucasians, body fat tends t o accumulate in the abdominal cavity which is more likely to form abdominal obesity. Weight gain is an independent risk factor for the development of T2DM. Increased body weight or waist circumference can aggravate insulin resistance, increase the risk of T2DM, and the difficulty of glycemic control. Compared with patients with obesity ...

Setting [9] is: after the first dose (1.0 mg s.c.), 3.0 mg cohort.
Where [10] appears, read: after the first dose (1.5 mg s.c.), 4.5 mg cohort.
The mark [11] stands for this setting: after the first dose (2.0 mg s.c.), 6.0 mg cohort.

Like-named read-outs stand apart in the source and are kept apart here.

In the case of `CC(C)C[C@H](NC(=O)[C@H](CC(C)C)NC(=O)[C@H](Cc1c[nH]c2ccccc12)NC(=O)[C@H](CCC(=O)O)NC(=O)[C@@H](NC(=O)[C@H](Cc1ccccc1)NC(=O)[C@H](CCC(=O)O)NC(=O)[C@H](CCCCNC(=O)COCCOCCNC(=O)COCCOCCNC(=O)CC[C@H](NC(=O)CCCCCCCCCCCCCCCCCCC(=O)O)C(=O)O)NC(=O)[C@H](C)NC(=O)[C@H](CCCCN)NC(=O)[C@H](CCCCN)NC(=O)[C@H](CCC(=O)O)NC(=O)[C@H](CC(=O)O)NC(=O)[C@H](CC(C)C)NC(=O)[C@H](Cc1ccc(O)cc1)NC(=O)[C@H](CCCCN)NC(=O)[C@H](CO)NC(=O)[C@H](Cc1ccc(O)cc1)NC(=O)[C@H](CC(=O)O)NC(=O)[C@H](CO)NC(=O)[C@@H](NC(=O)[C@H](Cc1ccccc1)NC(=O)[C@@H](NC(=O)CNC(=O)[C@H](CCC(N)=O)NC(=O)C(C)(C)NC(=O)[C@@H](N)Cc1c[nH]cn1)[C@@H](C)O)[C@@H](C)O)C(C)C)C(=O)N[C@@H](CCC(=O)O)C(=O)NCC(=O)NCC(=O)N1CCC[C@H]1C(=O)N[C@@H](CO)C(=O)N[C@@H](CO)C(=O)NCC(N)=O` [IBI362], the Tmax in data set [1] (after first s.c. dose, all IBI362 cohorts, n=24, read-out: median Tmax) is ~72 h; in data set [1] (after the first dose (1.0 mg s.c.), 3.0 mg cohort, n=8, read-out: Tmax, median (range)), 48.2 h; in data set [1] (after the first dose (1.5 mg s.c.), 4.5 mg cohort, n=8, read-out: Tmax, median (range)) it was 72.2 h; in data set [1] (after the first dose (2.0 mg s.c.), 6.0 mg cohort, n=8, read-out: Tmax, median (range)), 84 h. Besides, the AUC(0-t) in data set [1] (setting [9]) was found to be 12300 ng·h/mL; in data set [1] (setting [10]), 16500 ng·h/mL; in data set [1] (setting [11]), 22100 ng·h/mL. The Cmax came to 89.5 ng/mL in data set [1] (setting [9]), 109 ng/mL in data set [1] (setting [10]) and 170 ng/mL in data set [1] (setting [11]). The pharmacokinetic profile result in data set [2] is recorded as “linear”. The binding result in data set [3], in data set [4], in data set [6] and in data set [7] was “potently bound” in each case. Besides, the body weight result in data set [5] (both Gcgr KO and Glp1r KO settings) is “decreased body weight”. Also, the energy expenditure entry in data set [5] (mice) was “increased energy expenditure”. Also, the glucose control result in data set [5] (mice) is given as “improved glucose control”. In data set [8], the “weight loss effects (decreased appetite, weight loss)” value is on record as “significant weight loss effects”.
